PubChem BioAssay AID256 (DTP/NCI, 2004)
“And” between values parts separate entries of the source, which are not always exact repeats. Identical values can stand only once. Toxic doses and inconclusive results are not listed. The calls were made as follows: active = survival T/C of 150% or more; inactive = T/C below 125% in these data.

Test system: CD2F1 mice, L1210 leukemia ip, survival T/C
Assay: NCI In Vivo Anticancer Drug Screen. Data for tumor model L1210 Leukemia (intraperitoneal) in CD2F1 (CDF1) mice
Details: higher = longer survival
Method in brief: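 Vehicle-treated tumor-bearing mice served as controls (C) for compound-treated mice (T). Reported figure is T divided by C.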

[1] = endpoint: mean survival time, dose: 50.0 mg/kg/injection, schedule: Q01DX009 (ip), vehicle: Klucel (hydroxypropylcellulose) (HPC)
[2] = endpoint: mean survival time, dose: 100.0 mg/kg/injection, schedule: Q01DX009 (ip), vehicle: Klucel (hydroxypropylcellulose) (HPC)
[3] = endpoint: mean survival time, dose: 100.0 mg/kg/injection, schedule: Q04DX003 (ip), vehicle: saline with Tween-80
[4] = endpoint: mean survival time, dose: 200.0 mg/kg/injection, schedule: Q04DX003 (ip), vehicle: saline with Tween-80
[5] = endpoint: mean survival time, dose: 400.0 mg/kg/injection, schedule: Q04DX003 (ip), vehicle: saline with Tween-80
[6] = endpoint: mean survival time, dose: 100.0 mg/kg/injection, schedule: Q01DX001 (ip), vehicle: saline
[7] = endpoint: mean survival time, dose: 200.0 mg/kg/injection, schedule: Q01DX001 (ip), vehicle: saline
[8] = endpoint: mean survival time, dose: 400.0 mg/kg/injection, schedule: Q01DX001 (ip), vehicle: saline
[9] = endpoint: mean survival time, dose: 100.0 mg/kg/injection, schedule: Q01DX001 (ip), vehicle: saline with Tween-80
[10] = endpoint: mean survival time, dose: 200.0 mg/kg/injection, schedule: Q01DX001 (ip), vehicle: saline with Tween-80
[11] = endpoint: mean survival time, dose: 400.0 mg/kg/injection, schedule: Q01DX001 (ip), vehicle: saline with Tween-80
[12] = endpoint: mean survival time, dose: 100.0 mg/kg/injection, schedule: Q01DX009 (ip), vehicle: saline with Tween-80
[13] = endpoint: mean survival time, dose: 200.0 mg/kg/injection, schedule: Q01DX009 (ip), vehicle: saline with Tween-80
[14] = endpoint: mean survival time, dose: 400.0 mg/kg/injection, schedule: Q01DX009 (ip), vehicle: saline with Tween-80

Measured: T/C

O=C1NC(=O)C2(CCc3ccc(N(CCCl)CCCl)cc32)N1 (stereo unspecified)
active: endpoint: mean survival time, dose: 25.0 mg/kg/injection, schedule: Q01DX009 (ip), vehicle: Klucel (hydroxypropylcellulose) (HPC) 154 % of control and 157 % of control
inactive: endpoint: mean survival time, dose: 6.25 mg/kg/injection, schedule: Q01DX009 (ip), vehicle: Klucel (hydroxypropylcellulose) (HPC) 117 % of control | endpoint: mean survival time, dose: 6.25 mg/kg/injection, schedule: Q01DX009 (oral), vehicle: saline with Tween-80 96 % of control and 97 % of control | endpoint: mean survival time, dose: 12.5 mg/kg/injection, schedule: Q01DX009 (oral), vehicle: saline with Tween-80 100 % of control and 105 % of control | endpoint: mean survival time, dose: 25.0 mg/kg/injection, schedule: Q01DX009 (oral), vehicle: saline with Tween-80 102 % of control and 104 % of control | [1] 122 % of control and 103 % of control | endpoint: mean survival time, dose: 50.0 mg/kg/injection, schedule: Q01DX009 (oral), vehicle: saline with Tween-80 100 % of control and 104 % of control | [2] 97 % of control | endpoint: mean survival time, dose: 100.0 mg/kg/injection, schedule: Q01DX009 (oral), vehicle: saline with Tween-80 107 % of control and 109 % of control | endpoint: mean survival time, dose: 200.0 mg/kg/injection, schedule: Q01DX009 (oral), vehicle: saline with Tween-80 106 % of control and 110 % of control

Cc1ccnc(-n2c(N)cc(=O)[nH]c2=S)c1
inactive: [3] 97 % of control | [4] 97 % of control | [5] 96 % of control

CCCCNC1=C(C)C(=O)C2=C(C1=O)C(COC(N)=O)C1(OC)C3NC3CN21 (stereo unspecified)
inactive: endpoint: mean survival time, dose: 6.3 mg/kg/injection, schedule: Q01DX001 (ip), vehicle: carboxymethylcellulose (CMC) 102 % of control | endpoint: mean survival time, dose: 9.5 mg/kg/injection, schedule: Q01DX001 (ip), vehicle: carboxymethylcellulose (CMC) 118 % of control | endpoint: mean survival time, dose: 14.25 mg/kg/injection, schedule: Q01DX001 (ip), vehicle: carboxymethylcellulose (CMC) 102 % of control

COc1ccc(OC)c2c1CCC(=O)C2
inactive: endpoint: mean survival time, dose: 12.5 mg/kg/injection, schedule: Q01DX009 (ip), vehicle: other 102 % of control | endpoint: mean survival time, dose: 25.0 mg/kg/injection, schedule: Q01DX009 (ip), vehicle: other 104 % of control | endpoint: mean survival time, dose: 50.0 mg/kg/injection, schedule: Q01DX009 (ip), vehicle: other 102 % of control | endpoint: mean survival time, dose: 100.0 mg/kg/injection, schedule: Q01DX009 (ip), vehicle: other 107 % of control | endpoint: mean survival time, dose: 200.0 mg/kg/injection, schedule: Q01DX009 (ip), vehicle: other 107 % of control

CC1(C)OC2C3COP(=O)(N(CCCl)CCCl)NC(O3)C2O1 (stereo unspecified)
inactive: endpoint: mean survival time, dose: 3.9 mg/kg/injection, schedule: Q01DX001 (ip), vehicle: distilled water + Tween-80 98 % of control | endpoint: mean survival time, dose: 3.9 mg/kg/injection, schedule: Q01DX001 (ip), vehicle: distilled water + alcohol 103 % of control | endpoint: mean survival time, dose: 7.8 mg/kg/injection, schedule: Q01DX001 (ip), vehicle: distilled water + Tween-80 98 % of control | endpoint: mean survival time, dose: 7.8 mg/kg/injection, schedule: Q01DX001 (ip), vehicle: distilled water + alcohol 108 % of control | endpoint: mean survival time, dose: 15.6 mg/kg/injection, schedule: Q01DX001 (ip), vehicle: distilled water + alcohol 98 % of control | endpoint: mean survival time, dose: 31.2 mg/kg/injection, schedule: Q01DX001 (ip), vehicle: distilled water + Tween-80 98 % of control | endpoint: mean survival time, dose: 31.2 mg/kg/injection, schedule: Q01DX001 (ip), vehicle: distilled water + alcohol 103 % of control | endpoint: mean survival time, dose: 31.3 mg/kg/injection, schedule: Q01DX001 (ip), vehicle: distilled water + Tween-80 98 % of control | endpoint: mean survival time, dose: 62.5 mg/kg/injection, schedule: Q01DX001 (ip), vehicle: distilled water + Tween-80 98 % of control | endpoint: mean survival time, dose: 125.0 mg/kg/injection, schedule: Q01DX001 (ip), vehicle: distilled water + Tween-80 96 % of control | endpoint: mean survival time, dose: 250.0 mg/kg/injection, schedule: Q01DX001 (ip), vehicle: distilled water + Tween-80 96 % of control | endpoint: mean survival time, dose: 500.0 mg/kg/injection, schedule: Q01DX001 (ip), vehicle: distilled water + Tween-80 97 % of control

CCN1CCC(C(C)(C)C)CC1
inactive: endpoint: mean survival time, dose: 100.0 mg/kg/injection, schedule: Q01DX001 (ip), vehicle: acetone 102 % of control

CCN(CC)CCN=Cc1c(O)c(O)c(C(C)C)c2cc(C)c(-c3c(C)cc4c(C(C)C)c(O)c(O)c(C=NCCN(CC)CC)c4c3O)c(O)c12
inactive: [6] 90 % of control | [7] 90 % of control | [8] 93 % of control

O=c1[nH]cc(COCc2ccccc2)c(=O)[nH]1
inactive: [3] 98 % of control | [4] 104 % of control | [5] 96 % of control

O=c1oc(-c2ccc(OCc3ccccc3)c(OCc3ccccc3)c2)c2c3ccccc3ccn12
inactive: endpoint: median survival time, dose: 25.0 mg/kg/injection, schedule: Q04DX003 (ip), vehicle: saline with Tween-80 88 % of control | endpoint: median survival time, dose: 50.0 mg/kg/injection, schedule: Q04DX003 (ip), vehicle: saline with Tween-80 88 % of control | endpoint: median survival time, dose: 100.0 mg/kg/injection, schedule: Q04DX003 (ip), vehicle: saline with Tween-80 88 % of control | endpoint: median survival time, dose: 200.0 mg/kg/injection, schedule: Q04DX003 (ip), vehicle: saline with Tween-80 100 % of control

CC(C)CCNCC(C)(C)OC(=O)c1ccc([N+](=O)[O-])cc1
inactive: endpoint: mean survival time, dose: 75.0 mg/kg/injection, schedule: Q01DX001 (ip), vehicle: saline 97 % of control | endpoint: mean survival time, dose: 150.0 mg/kg/injection, schedule: Q01DX001 (ip), vehicle: saline 101 % of control | endpoint: mean survival time, dose: 300.0 mg/kg/injection, schedule: Q01DX001 (ip), vehicle: saline 102 % of control

N#CC(c1ccc([N+](=O)[O-])cc1)C(CC(=O)c1ccccc1)c1ccccc1 (stereo unspecified)
inactive: [1] 96 % of control | [2] 101 % of control | endpoint: mean survival time, dose: 200.0 mg/kg/injection, schedule: Q01DX009 (ip), vehicle: Klucel (hydroxypropylcellulose) (HPC) 93 % of control

Oc1ccccc1/C=N\Nc1ccccc1
inactive: endpoint: mean survival time, dose: 100.0 mg/kg/injection, schedule: Q01DX009 (ip), vehicle: saline 98 % of control | endpoint: mean survival time, dose: 200.0 mg/kg/injection, schedule: Q01DX009 (ip), vehicle: saline 98 % of control | endpoint: mean survival time, dose: 400.0 mg/kg/injection, schedule: Q01DX009 (ip), vehicle: saline 102 % of control

OCC1OC(Sc2cc(Cl)ccc2Cl)C(O)C(O)C1O (stereo unspecified)
inactive: [6] 103 % of control | [7] 100 % of control | [8] 100 % of control

O=C(c1ccc2ccccc2c1O)N1CCCCC1
inactive: [3] 101 % of control | [4] 103 % of control | [5] 101 % of control

COc1ccccc1C(=Nc1ccccc1)N(O)c1ccccc1
inactive: endpoint: mean survival time, dose: 2.5 mg/kg/injection, schedule: Q01DX001 (ip), vehicle: saline with Tween-80 114 % of control | endpoint: mean survival time, dose: 2.5 mg/kg/injection, schedule: Q04DX003 (ip), vehicle: saline with Tween-80 101 % of control | endpoint: mean survival time, dose: 5.0 mg/kg/injection, schedule: Q01DX001 (ip), vehicle: saline with Tween-80 112 % of control | endpoint: mean survival time, dose: 5.0 mg/kg/injection, schedule: Q04DX003 (ip), vehicle: saline with Tween-80 101 % of control | endpoint: mean survival time, dose: 10.0 mg/kg/injection, schedule: Q01DX001 (ip), vehicle: saline with Tween-80 114 % of control | endpoint: mean survival time, dose: 10.0 mg/kg/injection, schedule: Q04DX003 (ip), vehicle: saline with Tween-80 98 % of control

COCCOCCOc1cc(-c2c(OCCOCCOC)ccc3ccccc23)c2ccccc2c1
inactive: [9] 100 % of control | [10] 100 % of control | [11] 100 % of control

CCCCCCCC/C=C/CCCCCCCCCCCCCCBr
inactive: [3] 104 % of control | [4] 98 % of control | [5] 93 % of control

COC1OCC(OS(C)(=O)=O)C(OS(C)(=O)=O)C1OS(C)(=O)=O (stereo unspecified)
inactive: [9] 96 % of control | [12] 95 % of control and 100 % of control | [10] 97 % of control | [13] 96 % of control and 94 % of control | [11] 100 % of control | [14] 93 % of control and 96 % of control

O=C(O)CCC(NC(=O)OCc1ccccc1)C(=O)O (stereo unspecified)
inactive: [12] 98 % of control | [13] 94 % of control | [14] 96 % of control

O=C1OC(=O)C2C1CC1C(=O)OC(=O)C12 (stereo unspecified)
inactive: endpoint: mean survival time, dose: 50.0 mg/kg/injection, schedule: Q04DX003 (ip), vehicle: Klucel (hydroxypropylcellulose) (HPC) 97 % of control | endpoint: mean survival time, dose: 100.0 mg/kg/injection, schedule: Q04DX003 (ip), vehicle: Klucel (hydroxypropylcellulose) (HPC) 100 % of control | endpoint: mean survival time, dose: 200.0 mg/kg/injection, schedule: Q04DX003 (ip), vehicle: Klucel (hydroxypropylcellulose) (HPC) 96 % of control

c1ccc2c3c([nH]c2c1)CCCCC3
inactive: [3] 92 % of control | [4] 95 % of control | [5] 94 % of control
